Earlier results, collected in US10759976B2, “Color changeable adhesives and methods of making such adhesives” (Sensor International, LLC, priority 2018, dated 2020).

Settings: Table 2, carbon dioxide sensitive pigments/dyes

“5′ and 6′-Carboxyseminaphtholfluorescein” and 5′ and 6′-Carboxyseminaphtholrhodamine are within 0.2 log units of each other in pKa: 7.4 for the first, 7.5 for the second.

Going from `Cc1cc(O)c(C(C)C)cc1C1(c2cc(C(C)C)c(O)cc2C)OC(=O)c2ccccc21` [Thymolphthalein, 3,3-bis(4-hydroxy-2-methyl-5-propan-2-ylphenyl)-2-benzofuran-1-one] to `O=C(O)Cc1cc(=O)oc2cc(O)ccc12` [7-hydroxycoumarin-4-acetic acid], the pKa falls from 9.7 to 7.8.

Compared with `O=S(=O)(O)c1cc(O)c2ccc3c(S(=O)(=O)O)cc(S(=O)(=O)O)c4ccc1c2c34` [1, Hydroxypyrene-3,6,8-trisulphonic acid], `Cc1cc(O)ccc1C1(c2ccc(O)cc2C)OS(=O)(=O)c2ccccc21` [m-Cresol Purple] is higher in pKa: 8.1 for the first, 8.3 for the second.

Going from `O=S1(=O)OC(c2ccc(O)cc2)(c2ccc(O)cc2)c2ccccc21` [Phenol Red, phenolsulfonphthalein] to `Cc1cc(O)c(C(C)C)cc1C1(c2cc(C(C)C)c(O)cc2C)OS(=O)(=O)c2ccccc21` [Thymol blue, thymolsulphonephthalein], the pKa rises from 7.6 to 9.0.

For o-Cresolphthalein, the pKa is listed as 9.4.

Same assay, conditions: Table 3, fluorimetric pigments/dyes

Going from `NC(=O)NN=Cc1ccccc1O` [salicylaldehyde semicarbazone] to `O=S(=O)(O)c1cc(O)c2ccc3c(S(=O)(=O)O)cc(S(=O)(=O)O)c4ccc1c2c34` [1, Hydroxypyrene-3,6,8-trisulphonic acid], the pKa rises from 7.8 to 8.1.

Same assay, conditions: Table 4, ammonia sensitive pigments/dyes

First: CN(C)c1ccc(N=Nc2ccccc2)cc1 [Methyl yellow]
Second: O=S1(=O)OC(c2cc(Cl)c(O)c(Br)c2)(c2cc(Cl)c(O)c(Br)c2)c2ccccc21 [Bromochlorophenol blue]
The pKa of the first is lower: 3.3 for the first, 6.0 for the second.

First: O=S1(=O)OC(c2ccc(O)c(Cl)c2)(c2ccc(O)c(Cl)c2)c2ccccc21 [Chlorophenol red]
Second: O=C([O-])c1c(Cl)c(Cl)c(Cl)c(Cl)c1-c1c2cc(Br)c(=O)c(Br)c-2oc2c(Br)c([O-])c(Br)cc12.[Na+].[Na+] [Phloxine B]
The pKa of the first is higher: 6.3 for the first, 2.5 for the second.

First: O=C1c2ccccc2C(=O)c2c1ccc(O)c2O [Alizarin]
Second: CN(C)c1ccc(N=Nc2ccc(S(=O)(=O)[O-])cc2)cc1.[Na+] [Methyl Orange]
The pKa of the first is higher: 6.8 for the first, 4.2 for the second.

First: O=C1c2ccccc2C(=O)c2c1cc(S(=O)(=O)O)c(O)c2O [Alizarin red S]
Second: CCN(CC)c1ccc(N=Nc2ccc(S(=O)(=O)[O-])cc2)cc1.[K+] [Ethyl orange]
The pKa of the first is higher: 4.5 for the first, 4.3 for the second.

Going from `Cc1cc(O)ccc1C1(c2ccc(O)cc2C)OS(=O)(=O)c2ccccc21` [m-Cresol Purple] to `O=S1(=O)OC(c2ccc(O)cc2)(c2ccc(O)cc2)c2ccccc21` [Phenol Red, phenolsulfonphthalein], the pKa rises from 1.5 to 7.6.

Going from `CN(C)c1ccc(/N=N/c2ccccc2C(=O)O)cc1` [Methyl red] to `Cc1cc(O)c(C(C)C)cc1C1(c2cc(C(C)C)c(O)cc2C)OS(=O)(=O)c2ccccc21` [Thymol blue, thymolsulphonephthalein], the pKa falls from 5.4 to 1.6.

Compared with `O=S1(=O)OC(c2cc(Br)c(O)c(Br)c2)(c2cc(Br)c(O)c(Br)c2)c2ccccc21` [Bromophenol blue], `Cc1c(C2(c3cc(Br)c(O)c(Br)c3C)OS(=O)(=O)c3ccccc32)cc(Br)c(O)c1Br` [Bromocresol green] is higher in pKa: 3.9 for the first, 4.7 for the second.

In the case of Nitrazine yellow, the pKa is given as 6.4.
